In ChEMBL document CHEMBL1201862, “PubChem BioAssay data set” (2004):
Blank lines part the entries; values can stand above or below the compound they belong to. Calls of active or inactive are those of the source.

Key:
Candida albicans = experiment: single-agent growth inhibition of C. albicans, dose response, counter-screen for antifungal drug resistance project, C. albicans CaCi-2, dry powder (AID 488802); format: functional, organism-based
NIH3T3 = experiment: cytotoxicity in NIH-3T3 fibroblasts, dose response, cytotoxicity control for antifungal drug resistance project, cell-based, Alamar Blue, fluconazole, dry powder (AID 488809); format: functional; details: Mus musculus
[1] = target: T1, Sentrin-specific protease 8 (Homo sapiens, UniProt Q96LD8); experiment: SENP8 protease inhibitors, SAR follow-up, biochemical, luminescence (AID 504501); format: functional
T1 sequence (Q96LD8 whole entry): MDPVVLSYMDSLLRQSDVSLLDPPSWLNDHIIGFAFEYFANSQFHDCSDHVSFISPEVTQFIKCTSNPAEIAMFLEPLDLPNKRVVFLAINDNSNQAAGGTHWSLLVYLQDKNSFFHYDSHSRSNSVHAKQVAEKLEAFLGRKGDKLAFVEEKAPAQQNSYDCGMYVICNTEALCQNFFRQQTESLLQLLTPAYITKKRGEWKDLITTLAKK

Caspase-3 [2] = target: T2, Caspase-3 (Homo sapiens, UniProt P42574); experiment: caspase-3 inhibitors as off-family protease, SAR follow-up, selectivity assay for SENP protease inhibitor project, biochemical, luminescence, set 2 (AID 588599); format: functional
T2 sequence (P42574 whole entry): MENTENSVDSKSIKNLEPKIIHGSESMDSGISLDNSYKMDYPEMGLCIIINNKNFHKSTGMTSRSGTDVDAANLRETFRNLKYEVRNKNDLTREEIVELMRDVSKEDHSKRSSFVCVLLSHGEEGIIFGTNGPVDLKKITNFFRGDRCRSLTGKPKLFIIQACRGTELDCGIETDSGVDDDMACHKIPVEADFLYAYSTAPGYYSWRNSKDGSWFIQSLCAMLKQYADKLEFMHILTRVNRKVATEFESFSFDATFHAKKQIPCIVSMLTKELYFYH

[3] = target: T1, Sentrin-specific protease 8; experiment: SENP8 protease inhibitors, SAR follow-up, biochemical, luminescence, set 2 (AID 588601); format: functional
Caspase-3 [4] = target: T2, Caspase-3; experiment: SAR Analysis of small molecule inhibitors of Sentrin-specific proteases (SENPs) using a Caspase-3 Selectivity assay. [Related pubchem assays (depositor defined):AID2540, AID2599, AID434973, AID489001]; format: functional
[5] = target: T3, Sentrin-specific protease 7 (Homo sapiens, UniProt Q9BQF6); experiment: SENP7 protease inhibitors, SAR follow-up, biochemical, luminescence, set 2 (AID 588600); format: functional
T3 sequence (Q9BQF6 whole entry): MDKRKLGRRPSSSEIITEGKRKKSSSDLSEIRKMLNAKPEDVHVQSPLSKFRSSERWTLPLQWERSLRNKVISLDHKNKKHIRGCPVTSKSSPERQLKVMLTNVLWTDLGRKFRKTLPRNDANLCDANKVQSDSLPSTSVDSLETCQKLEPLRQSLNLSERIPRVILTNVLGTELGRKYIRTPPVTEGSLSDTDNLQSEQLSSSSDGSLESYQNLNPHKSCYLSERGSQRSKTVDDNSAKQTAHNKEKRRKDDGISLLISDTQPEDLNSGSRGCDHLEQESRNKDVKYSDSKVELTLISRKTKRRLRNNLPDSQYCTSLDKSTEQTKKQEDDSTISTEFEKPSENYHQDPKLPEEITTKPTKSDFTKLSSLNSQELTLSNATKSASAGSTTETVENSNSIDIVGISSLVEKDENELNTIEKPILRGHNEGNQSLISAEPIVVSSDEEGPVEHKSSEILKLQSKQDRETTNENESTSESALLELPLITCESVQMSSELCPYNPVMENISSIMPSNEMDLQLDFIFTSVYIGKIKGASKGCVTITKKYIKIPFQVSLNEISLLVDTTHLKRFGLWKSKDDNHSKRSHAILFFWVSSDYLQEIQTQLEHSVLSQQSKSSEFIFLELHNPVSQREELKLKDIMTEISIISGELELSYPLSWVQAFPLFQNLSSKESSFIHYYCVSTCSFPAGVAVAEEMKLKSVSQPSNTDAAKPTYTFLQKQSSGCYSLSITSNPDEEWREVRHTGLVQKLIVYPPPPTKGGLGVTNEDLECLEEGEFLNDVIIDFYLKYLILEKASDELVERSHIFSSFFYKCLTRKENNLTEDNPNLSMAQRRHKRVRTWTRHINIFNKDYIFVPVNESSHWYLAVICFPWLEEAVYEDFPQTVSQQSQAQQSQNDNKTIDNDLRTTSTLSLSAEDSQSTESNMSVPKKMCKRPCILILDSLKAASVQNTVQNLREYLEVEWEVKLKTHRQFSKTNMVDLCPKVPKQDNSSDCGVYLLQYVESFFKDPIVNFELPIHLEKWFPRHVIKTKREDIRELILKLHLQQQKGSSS

[6] = target: T4, Sentrin-specific protease 6 (Homo sapiens, UniProt Q9GZR1); experiment: SAR Analysis of small molecule inhibitors of Sentrin-specific protease 6 (SENP6) using a Luminescent assay. [Related pubchem assays (depositor defined):AID2582, AID2599]; format: functional
T4 sequence (Q9GZR1 whole entry): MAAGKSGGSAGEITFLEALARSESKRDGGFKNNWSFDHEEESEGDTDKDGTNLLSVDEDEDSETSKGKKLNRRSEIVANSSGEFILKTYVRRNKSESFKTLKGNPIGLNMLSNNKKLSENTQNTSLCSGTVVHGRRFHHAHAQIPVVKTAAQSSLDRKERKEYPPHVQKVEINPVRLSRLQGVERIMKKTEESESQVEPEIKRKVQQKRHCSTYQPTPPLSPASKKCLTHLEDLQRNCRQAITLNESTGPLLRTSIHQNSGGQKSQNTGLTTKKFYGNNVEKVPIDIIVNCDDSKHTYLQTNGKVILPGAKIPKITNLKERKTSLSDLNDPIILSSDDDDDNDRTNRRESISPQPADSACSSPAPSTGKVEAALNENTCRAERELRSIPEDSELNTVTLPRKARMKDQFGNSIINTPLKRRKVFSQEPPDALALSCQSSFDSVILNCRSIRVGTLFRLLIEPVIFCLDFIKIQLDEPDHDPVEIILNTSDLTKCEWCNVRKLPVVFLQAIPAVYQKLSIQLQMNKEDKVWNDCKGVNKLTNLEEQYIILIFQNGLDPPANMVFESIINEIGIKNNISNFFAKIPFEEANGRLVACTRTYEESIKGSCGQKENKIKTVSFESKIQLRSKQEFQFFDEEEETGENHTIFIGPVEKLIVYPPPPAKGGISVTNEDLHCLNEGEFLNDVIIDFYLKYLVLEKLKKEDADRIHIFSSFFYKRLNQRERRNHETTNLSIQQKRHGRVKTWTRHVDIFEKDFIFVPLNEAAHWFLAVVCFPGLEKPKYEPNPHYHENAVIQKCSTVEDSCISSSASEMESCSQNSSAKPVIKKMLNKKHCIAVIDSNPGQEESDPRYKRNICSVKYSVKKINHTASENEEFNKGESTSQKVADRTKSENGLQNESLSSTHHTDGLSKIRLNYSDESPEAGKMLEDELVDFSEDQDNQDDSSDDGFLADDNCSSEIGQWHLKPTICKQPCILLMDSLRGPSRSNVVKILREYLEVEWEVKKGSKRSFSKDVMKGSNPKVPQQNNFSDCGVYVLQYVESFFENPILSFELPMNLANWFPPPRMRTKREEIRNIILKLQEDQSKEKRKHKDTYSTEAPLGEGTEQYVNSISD

[7] = target: T4, Sentrin-specific protease 6; experiment: SENP6 protease inhibitors, SAR follow-up, biochemical, luminescence, set 2 (AID 588598); format: functional
[8] = target: T3, Sentrin-specific protease 7; experiment: SENP7 protease inhibitors, SAR follow-up, biochemical, luminescence (AID 504497); format: functional
Protein skinhead-1 = target: T5, Protein skinhead-1 (Caenorhabditis elegans, UniProt P34707); format: functional
T5 sequence (P34707 whole entry): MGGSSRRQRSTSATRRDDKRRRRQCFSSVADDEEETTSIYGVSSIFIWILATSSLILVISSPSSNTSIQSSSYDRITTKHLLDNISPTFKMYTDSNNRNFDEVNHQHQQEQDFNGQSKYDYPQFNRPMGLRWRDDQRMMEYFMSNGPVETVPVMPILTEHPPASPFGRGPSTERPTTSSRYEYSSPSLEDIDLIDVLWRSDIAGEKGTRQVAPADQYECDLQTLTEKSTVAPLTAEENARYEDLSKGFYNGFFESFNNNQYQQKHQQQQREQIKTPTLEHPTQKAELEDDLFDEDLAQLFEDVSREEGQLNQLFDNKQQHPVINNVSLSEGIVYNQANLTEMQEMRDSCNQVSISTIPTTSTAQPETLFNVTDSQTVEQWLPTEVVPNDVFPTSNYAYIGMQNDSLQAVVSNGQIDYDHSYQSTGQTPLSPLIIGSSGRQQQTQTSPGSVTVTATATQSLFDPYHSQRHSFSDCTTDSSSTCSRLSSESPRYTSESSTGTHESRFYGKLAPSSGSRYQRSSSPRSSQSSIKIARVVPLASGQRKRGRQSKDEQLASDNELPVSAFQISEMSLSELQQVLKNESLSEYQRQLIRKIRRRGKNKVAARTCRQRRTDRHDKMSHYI

CAAX prenyl protease 2 = CAAX prenyl protease 2 (Saccharomyces cerevisiae S288c, UniProt Q03530); experiment: yeast Rce1 CaaX protease inhibitors, dose response, biochemical, plate reader, dry powder retest (AID 588851)
Cytochrome P450 2D6 = Cytochrome P450 2D6 (Homo sapiens, UniProt P10635);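 note: CYP2D6 member of a cytochrome P450 panel assay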
CHO-K1 = experiment: (§1) Counterscreen for antagonists of the orexin 1 receptor (OX1R; HCRTR1): Homogeneous time resolved fluorescence (HTRF)-based cell-based dose response assay to identify antagonists of the parental CHO-K1 cell line. [Related pubchem assays (depositor defined):AID434989, AID435008, AID463079, AID485270, AID492963, AID492964, AID492965, AID493232, AID504699, AID504701]; format: functional; details: Cricetulus griseus
[9] = as §1, with “Fluorescence-based” for “Homogeneous time resolved fluorescence (HTRF)-based”, “cell-based high throughput” for “cell-based”, “CHO” for “CHO-K1”; format: functional
[10] = target: T6, Orexin/Hypocretin receptor type 1 (Homo sapiens, UniProt O43613); experiment: Homogeneous Time Resolved Fluorescence (HTRF)-based cell-based high throughput dose response assay for antagonists of the orexin 1 receptor (OX1R; HCRTR1). [Related pubchem assays (depositor defined):AID434989, AID435008, AID463079, AID485270, AID492963, AID492964, AID492965, AID493232, AID504717, AID504718]; format: functional
[11] = target: T6, Orexin/Hypocretin receptor type 1; experiment: Fluorescence-based cell-based high throughput dose response assay for antagonists of the orexin 1 receptor (OX1R; HCRTR1). [Related pubchem assays (depositor defined):AID434989, AID435008, AID463079, AID485270, AID492963, AID492964, AID492965, AID493232, AID504717, AID504718]; format: functional
Orexin receptor type 2 [12] = target: T7, Orexin receptor type 2 (Homo sapiens, UniProt O43614); experiment: Counterscreen assay for antagonists of the orexin 1 receptor (OX1R; HCRTR1): Fluorescence-based cell-based dose response assay for antagonists of the orexin 2 receptor (OX2R; HCRTR2), run by assay provider.; format: functional
Orexin receptor type 2 [13] = target: T7, Orexin receptor type 2; experiment: Counterscreen assay for antagonists of the orexin 1 receptor (OX1R; HCRTR1): Homogeneous Time Resolved Fluorescence (HTRF)-based cell-based dose response assay for antagonists of the orexin 2 receptor (OX2R; HCRTR2), run by assay provider.; format: functional

T6 sequence (O43613 whole entry): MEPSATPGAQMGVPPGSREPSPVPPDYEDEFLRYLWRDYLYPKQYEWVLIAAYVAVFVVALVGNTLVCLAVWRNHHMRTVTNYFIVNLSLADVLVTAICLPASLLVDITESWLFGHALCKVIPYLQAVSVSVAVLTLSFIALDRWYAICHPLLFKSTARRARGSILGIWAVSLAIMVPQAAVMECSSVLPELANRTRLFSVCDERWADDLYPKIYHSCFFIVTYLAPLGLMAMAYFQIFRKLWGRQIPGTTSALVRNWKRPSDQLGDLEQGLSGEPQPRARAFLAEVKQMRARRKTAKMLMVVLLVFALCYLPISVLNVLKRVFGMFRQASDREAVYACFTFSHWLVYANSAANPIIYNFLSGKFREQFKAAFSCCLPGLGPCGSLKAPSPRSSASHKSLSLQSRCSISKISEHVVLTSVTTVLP
T7 sequence (O43614 whole entry): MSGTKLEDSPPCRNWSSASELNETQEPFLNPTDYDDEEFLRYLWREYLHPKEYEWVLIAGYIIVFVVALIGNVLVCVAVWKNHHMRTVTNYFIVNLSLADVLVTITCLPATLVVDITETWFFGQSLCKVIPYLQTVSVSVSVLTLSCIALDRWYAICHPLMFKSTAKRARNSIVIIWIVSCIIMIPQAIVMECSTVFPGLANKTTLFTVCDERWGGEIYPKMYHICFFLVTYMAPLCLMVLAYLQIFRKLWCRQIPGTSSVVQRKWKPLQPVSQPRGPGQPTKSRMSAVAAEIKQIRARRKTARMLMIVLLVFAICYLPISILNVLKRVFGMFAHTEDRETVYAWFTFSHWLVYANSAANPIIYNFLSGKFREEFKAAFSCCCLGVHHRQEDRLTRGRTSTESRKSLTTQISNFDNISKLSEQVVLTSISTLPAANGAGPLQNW
Sequence of CAAX prenyl protease 2 (Q03530 whole entry): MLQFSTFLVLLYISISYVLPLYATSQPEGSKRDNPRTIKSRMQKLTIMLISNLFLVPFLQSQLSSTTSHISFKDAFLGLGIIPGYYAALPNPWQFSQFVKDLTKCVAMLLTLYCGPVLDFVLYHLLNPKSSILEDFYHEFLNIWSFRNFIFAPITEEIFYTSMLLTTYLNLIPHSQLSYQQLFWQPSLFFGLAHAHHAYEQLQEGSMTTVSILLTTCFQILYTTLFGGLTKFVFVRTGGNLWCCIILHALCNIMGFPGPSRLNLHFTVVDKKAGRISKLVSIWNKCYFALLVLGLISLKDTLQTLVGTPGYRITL
Sequence of Cytochrome P450 2D6 (P10635 whole entry): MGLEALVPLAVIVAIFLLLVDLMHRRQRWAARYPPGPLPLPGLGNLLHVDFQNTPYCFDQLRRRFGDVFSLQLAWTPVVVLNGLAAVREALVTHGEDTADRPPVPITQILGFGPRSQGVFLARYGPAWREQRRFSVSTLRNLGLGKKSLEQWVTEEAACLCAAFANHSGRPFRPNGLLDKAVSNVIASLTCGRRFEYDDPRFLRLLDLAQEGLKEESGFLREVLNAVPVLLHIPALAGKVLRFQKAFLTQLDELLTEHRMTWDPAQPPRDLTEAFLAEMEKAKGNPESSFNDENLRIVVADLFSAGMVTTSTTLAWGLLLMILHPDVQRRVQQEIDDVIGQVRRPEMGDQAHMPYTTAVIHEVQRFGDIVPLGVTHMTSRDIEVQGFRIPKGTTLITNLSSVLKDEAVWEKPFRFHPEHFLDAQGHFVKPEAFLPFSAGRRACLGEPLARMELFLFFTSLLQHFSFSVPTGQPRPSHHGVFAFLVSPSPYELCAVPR

Structure (SMILES): CC1CCN(C(=O)Cn2c3ccccc3c3nc4n(c(=O)c32)CCCS4)CC1
AC50 (Candida albicans): 122 µM (active)
AC50 (NIH3T3): > 260 µM (inactive)

IC50 (Caspase-3 [2]): 9.23 µM (active)
IC50 (Caspase-3 [4]): 6.2 µM (active)
IC50 [5]: 8.26 µM (active)
IC50 [6]: 21 µM (active)
IC50 [7]: 8.23 µM (active)
IC50 [8]: 5.3 µM (active)
IC50 (Protein skinhead-1): 49 µM (active)
Structure (SMILES): C(=C\c1nc(-c2cccnc2)no1)/c1ccccc1
IC50 [1]: 23 µM (active)
IC50 [3]: 9.69 µM (active)

AC50 (CAAX prenyl protease 2): 11 µM (active)
AC50 (Cytochrome P450 2D6): 11.2 µM (inconclusive)
Structure (SMILES): Cc1ccc(NC(=O)CCc2ccc(S(=O)(=O)NC3CCCCC3)cc2)cc1

Structure (SMILES): Cc1nn(C)c(C)c1/N=C/c1c(O)ccc2ccccc12
IC50 (CHO-K1): > 66.2 µM (inactive)
IC50 [9]: > 49.8 µM (inactive)
IC50 [10]: 3.76 µM (active)
IC50 [11]: 31.2 µM (inactive)
IC50 (Orexin receptor type 2 [12]): > 88.8 µM (inactive)
IC50 (Orexin receptor type 2 [13]): > 50 µM (inactive)
